Data as given in BindingDB's records for patent US11111253 (University of Pittsburgh, 2021).

Target: T1, Signal transducer and activator of transcription 1-alpha/beta (Homo sapiens, UniProt P42224)
T1 sequence (P42224 whole entry): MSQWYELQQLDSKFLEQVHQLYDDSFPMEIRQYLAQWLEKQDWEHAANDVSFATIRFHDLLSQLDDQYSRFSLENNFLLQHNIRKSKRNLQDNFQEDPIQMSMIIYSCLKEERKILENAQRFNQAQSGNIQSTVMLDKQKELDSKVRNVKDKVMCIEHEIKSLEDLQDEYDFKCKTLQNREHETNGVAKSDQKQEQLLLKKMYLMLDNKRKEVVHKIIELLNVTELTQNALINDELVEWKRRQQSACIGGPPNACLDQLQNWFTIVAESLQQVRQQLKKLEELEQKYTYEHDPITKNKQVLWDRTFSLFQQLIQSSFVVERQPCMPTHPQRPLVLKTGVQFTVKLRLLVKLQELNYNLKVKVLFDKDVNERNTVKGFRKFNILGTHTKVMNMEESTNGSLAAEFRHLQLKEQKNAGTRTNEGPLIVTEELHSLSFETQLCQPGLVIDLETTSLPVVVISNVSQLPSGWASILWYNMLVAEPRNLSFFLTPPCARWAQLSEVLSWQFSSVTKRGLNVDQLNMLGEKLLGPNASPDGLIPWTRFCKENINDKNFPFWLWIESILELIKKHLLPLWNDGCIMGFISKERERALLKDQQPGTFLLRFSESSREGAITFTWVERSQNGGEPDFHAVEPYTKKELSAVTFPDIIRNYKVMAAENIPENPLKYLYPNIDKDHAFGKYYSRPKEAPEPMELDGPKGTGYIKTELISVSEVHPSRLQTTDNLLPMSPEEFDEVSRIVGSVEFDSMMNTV
Assay: Bioassay
Protocol: Compound samples (in 3-5 mg quantities) were evaluated in a variety of assays. All compound submissions were fully characterized (1H, 13C, IR, FIRMS), satisfied purity criteria (≥95% LC/MC, ELS).

Compound | IC50 [µM]
COc1ccc(C2=Nn3c(nnc3-c3cc(-c4ccccc4)n[nH]3)SC2)cc1 [US11111253, Compound 8b] | > 50
CC(C)CC1Sc2nnc(-c3[nH]nc4c3CCC4)n2N=C1c1ccc(Cl)c(Cl)c1 (stereo not drawn) [US11111253, Compound 27] | > 50
COc1ccc(C2=Nn3c(nnc3-c3cc(-c4ccccc4)n[nH]3)SC2CC(C)C)cc1 (stereo not drawn) [US11111253, Compound 28] | > 50
